Experimental data reported in paper PMC11374673, “Discovery of isoquinoline sulfonamides as allosteric gyrase inhibitors with activity against fluoroquinolone-resistant bacteria” (Nature Chemistry, 2024).
Values joined by “and” are separate entries in the source; they are usually repeats but may differ in a detail not shown here. Equal values may be shown once.

What was measured:
E. coli = experiment: Checkerboard assay LEI-800 with CIP; type: cell-based, Escherichia coli;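 note: bacterial growth read as OD600 after 20 h at 37 °C with shaking, each drug pair tested in triplicate wells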
E. coli DNA gyrase = target: T1, E. coli DNA gyrase (Escherichia coli, UniProt P0AES4); experiment: Gyrase supercoiling inhibition, gel-based; type: biochemical
T1 construct: purchased Inspiralis Limited
T1 sequence (P0AES4 whole entry): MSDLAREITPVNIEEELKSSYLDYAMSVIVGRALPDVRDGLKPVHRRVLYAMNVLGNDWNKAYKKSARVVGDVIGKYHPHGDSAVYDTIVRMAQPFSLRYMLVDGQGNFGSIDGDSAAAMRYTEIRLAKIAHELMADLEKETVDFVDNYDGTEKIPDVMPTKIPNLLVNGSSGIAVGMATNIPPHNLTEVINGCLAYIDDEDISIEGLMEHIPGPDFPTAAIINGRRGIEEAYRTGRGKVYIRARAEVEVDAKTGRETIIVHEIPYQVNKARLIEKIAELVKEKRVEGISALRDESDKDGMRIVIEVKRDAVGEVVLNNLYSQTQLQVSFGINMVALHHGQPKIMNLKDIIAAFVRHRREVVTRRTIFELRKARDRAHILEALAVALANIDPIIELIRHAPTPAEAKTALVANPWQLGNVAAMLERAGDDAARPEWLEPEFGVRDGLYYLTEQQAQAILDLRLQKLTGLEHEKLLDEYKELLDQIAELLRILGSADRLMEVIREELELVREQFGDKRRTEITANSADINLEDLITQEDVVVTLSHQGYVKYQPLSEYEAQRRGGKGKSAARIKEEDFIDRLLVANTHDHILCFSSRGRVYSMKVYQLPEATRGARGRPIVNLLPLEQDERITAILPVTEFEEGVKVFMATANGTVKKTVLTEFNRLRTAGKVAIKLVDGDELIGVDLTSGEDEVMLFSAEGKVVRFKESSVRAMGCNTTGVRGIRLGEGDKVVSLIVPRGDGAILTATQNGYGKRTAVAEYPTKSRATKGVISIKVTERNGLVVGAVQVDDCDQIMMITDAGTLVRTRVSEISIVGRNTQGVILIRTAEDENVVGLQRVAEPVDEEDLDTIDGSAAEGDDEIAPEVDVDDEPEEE
Protocol: Of this stock solution, 27 µl was aliquoted for each reaction in 1.5 ml Eppendorf tubes and supplemented with 0.6 µl of the appropriate compound dilution or corresponding solvent with a final DMSO concentration of 2%. The reactions were started with 3 µl of enzyme (1 U for WT gyrase retrieved from Inspiralis Limited or 25–30 nM gyrase variants purified in house) in dilution buffer (50 mM Tris–HCl (pH 7.5), 100 mM KCl, 2 mM DTT, 1 mM EDTA and 50% (wt/vol) glycerol) for a final volume of 30 µl. Reactions were run at 37 °C for 30 min and stopped with the addition of 30 µl STEB buffer (40% (wt/vol) sucrose, 100 mM Tris–HCl pH 8, 100 mM EDTA, 0.5 mg ml^−1 bromophenol blue) and 30 µl of a chloroform:isoamyl alcohol solution (24:1 vol/vol). After brief vortexing and centrifugation at 2,300g for 1 min, 20 µl of the aqueous phase was loaded onto 1% (wt/vol) agarose gels in TAE ([…]) gel. The gels were run at 85 V for 2 h followed by staining (15 min) in 1 µg ml^−1 ethidium bromide and destaining (5–10 min) in water. […] IC50 curves were generated in GraphPad Prism (v9.0.0) using the non-linear regression curve fit variable slope with four parameters and least squares regression. A. baumannii and P. aeruginosa gyrase supercoiling inhibition assays were set up in the same way as E. coli gyrase supercoiling assays. The enzyme was retrieved from Inspiralis Ltd. (PAG1001 and ABG1001) and tested in-house for activity with ×5 U enzyme used for each reaction.

[1] = Ciprofloxacin 0.78125 nM + LEI-800 0 µM
[2] = Ciprofloxacin 0.78125 nM + LEI-800 0.1 µM
[3] = Ciprofloxacin 0.78125 nM + LEI-800 0.2 µM
[4] = Ciprofloxacin 0.78125 nM + LEI-800 0.4 µM
[5] = Ciprofloxacin 0.78125 nM + LEI-800 0.8 µM
[6] = Ciprofloxacin 0.78125 nM + LEI-800 3.1 µM
[7] = Ciprofloxacin 0.78125 nM + LEI-800 6.2 µM
[8] = Ciprofloxacin 1.5625 nM + LEI-800 0 µM
[9] = Ciprofloxacin 1.5625 nM + LEI-800 0.1 µM
[10] = Ciprofloxacin 1.5625 nM + LEI-800 0.2 µM
[11] = Ciprofloxacin 1.5625 nM + LEI-800 0.4 µM
[12] = Ciprofloxacin 1.5625 nM + LEI-800 0.8 µM
[13] = Ciprofloxacin 1.5625 nM + LEI-800 3.1 µM
[14] = Ciprofloxacin 1.5625 nM + LEI-800 6.2 µM
[15] = Ciprofloxacin 12.5 nM + LEI-800 0.2 µM
[16] = Ciprofloxacin 12.5 nM + LEI-800 0.4 µM
[17] = Ciprofloxacin 25 nM + LEI-800 0 µM
[18] = Ciprofloxacin 25 nM + LEI-800 0.1 µM
[19] = Ciprofloxacin 25 nM + LEI-800 0.2 µM
[20] = Ciprofloxacin 25 nM + LEI-800 0.4 µM
[21] = Ciprofloxacin 25 nM + LEI-800 0.8 µM
[22] = Ciprofloxacin 25 nM + LEI-800 3.1 µM
[23] = Ciprofloxacin 25 nM + LEI-800 6.2 µM
[24] = Ciprofloxacin 50 nM + LEI-800 0 µM
[25] = Ciprofloxacin 50 nM + LEI-800 0.1 µM
[26] = Ciprofloxacin 50 nM + LEI-800 0.2 µM
[27] = Ciprofloxacin 50 nM + LEI-800 0.4 µM
[28] = Ciprofloxacin 50 nM + LEI-800 0.8 µM
[29] = Ciprofloxacin 50 nM + LEI-800 3.1 µM
[30] = Ciprofloxacin 50 nM + LEI-800 6.2 µM

`O=C(O)c1cn(C2CC2)c2cc(N3CCNCC3)c(F)cc2c1=O` [CIP, ciprofloxacin] was tested, and the “checkerboard plate reading, Average values” (E. coli; [1]) was 0.83, the “checkerboard plate reading, replicate wells” value (E. coli; [1]) was 0.8643 and 0.836 and 0.7898 and the “checkerboard plate reading, Average values” (E. coli; [2]) was 0.7281. The “checkerboard plate reading, replicate wells” value (E. coli; [2]) was 0.7059 and 0.7562 and 0.7221, the “checkerboard plate reading, Average values” (E. coli; [3]) was 0.6917 and the “checkerboard plate reading, replicate wells” value (E. coli; [3]) was 0.6798 and 0.723 and 0.6723. The “checkerboard plate reading, Average values” (E. coli; [4]) was 0.6669, the “checkerboard plate reading, replicate wells” value (E. coli; [4]) was 0.6638 and 0.6554 and 0.6815 and the “checkerboard plate reading, Average values” (E. coli; [5]) was 0.5857. The “checkerboard plate reading, replicate wells” value (E. coli; [5]) was 0.6064 and 0.5755 and 0.5753, the “checkerboard plate reading, Average values” (E. coli; [6]) was 0.2755 and the “checkerboard plate reading, replicate wells” value (E. coli; [6]) was 0.2688 and 0.2609 and 0.2967. For the same compound, the “checkerboard plate reading, Average values” (E. coli; [7]) was 0.1492, the “checkerboard plate reading, replicate wells” value (E. coli; [7]) was 0.1443 and 0.151 and 0.1523 and the “checkerboard plate reading, Average values” (E. coli; Ciprofloxacin 0.78125 nM + LEI-800 […]) was 0.4707. The “checkerboard plate reading, Average values” (E. coli; [8]) was 0.8174, the “checkerboard plate reading, replicate wells” value (E. coli; [8]) was 0.9018 and 0.7912 and 0.7592 and the “checkerboard plate reading, Average values” (E. coli; [9]) was 0.71. The “checkerboard plate reading, replicate wells” value (E. coli; [9]) was 0.7109 and 0.704 and 0.715, the “checkerboard plate reading, Average values” (E. coli; [10]) was 0.6776 and the “checkerboard plate reading, replicate wells” value (E. coli; [10]) was 0.667 and 0.7085 and 0.6572. The “checkerboard plate reading, Average values” (E. coli; [11]) was 0.6371, the “checkerboard plate reading, replicate wells” value (E. coli; [11]) was 0.6099 and 0.644 and 0.6575 and the “checkerboard plate reading, Average values” (E. coli; [12]) was 0.5615. For the same compound, the “checkerboard plate reading, replicate wells” value (E. coli; [12]) was 0.5364 and 0.5772 and 0.571, the “checkerboard plate reading, Average values” (E. coli; [13]) was 0.2706 and the “checkerboard plate reading, replicate wells” value (E. coli; [13]) was 0.2674 and 0.2638 and 0.2807. The “checkerboard plate reading, Average values” (E. coli; [14]) was 0.1458, the “checkerboard plate reading, replicate wells” value (E. coli; [14]) was 0.1385 and 0.1476 and 0.1513 and the “checkerboard plate reading, Average values” (E. coli; Ciprofloxacin 1.5625 nM + LEI-800 […]) was 0.4578. The “checkerboard plate reading, Average values” (E. coli; Ciprofloxacin 3.125 nM + LEI-800 0 µM) was 0.7916, the “checkerboard plate reading, Average values” (E. coli; Ciprofloxacin 3.125 nM + LEI-800 0.1 µM) was 0.7539 and the “checkerboard plate reading, Average values” (E. coli; Ciprofloxacin 3.125 nM + LEI-800 0.2 µM) was 0.6934. The “checkerboard plate reading, Average values” (E. coli; Ciprofloxacin 3.125 nM + LEI-800 0.4 µM) was 0.6265, the “checkerboard plate reading, Average values” (E. coli; Ciprofloxacin 3.125 nM + LEI-800 0.8 µM) was 0.5829 and the “checkerboard plate reading, Average values” (E. coli; Ciprofloxacin 3.125 nM + LEI-800 3.1 µM) was 0.2713. The “checkerboard plate reading, Average values” (E. coli; Ciprofloxacin 3.125 nM + LEI-800 6.2 µM) was 0.1411, the “checkerboard plate reading, Average values” (E. coli; Ciprofloxacin 3.125 nM + LEI-800 […]) was 0.464 and the “checkerboard plate reading, Average values” (E. coli; Ciprofloxacin 6.25 nM + LEI-800 0 µM) was 0.8039. The “checkerboard plate reading, Average values” (E. coli; Ciprofloxacin 6.25 nM + LEI-800 0.1 µM) was 0.6899, the “checkerboard plate reading, Average values” (E. coli; Ciprofloxacin 6.25 nM + LEI-800 0.2 µM) was 0.6258 and the “checkerboard plate reading, Average values” (E. coli; Ciprofloxacin 6.25 nM + LEI-800 0.4 µM) was 0.6515. For the same compound, the “checkerboard plate reading, Average values” (E. coli; Ciprofloxacin 6.25 nM + LEI-800 0.8 µM) was 0.573, the “checkerboard plate reading, Average values” (E. coli; Ciprofloxacin 6.25 nM + LEI-800 3.1 µM) was 0.2841 and the “checkerboard plate reading, Average values” (E. coli; Ciprofloxacin 6.25 nM + LEI-800 6.2 µM) was 0.1541. For the same compound, the “checkerboard plate reading, Average values” (E. coli; Ciprofloxacin 6.25 nM + LEI-800 […]) was 0.4469, the “checkerboard plate reading, Average values” (E. coli; Ciprofloxacin 12.5 nM + LEI-800 0 µM) was 0.8165 and the “checkerboard plate reading, Average values” (E. coli; Ciprofloxacin 12.5 nM + LEI-800 0.1 µM) was 0.6889. The “checkerboard plate reading, Average values” (E. coli; [15]) was 0.6272, the “checkerboard plate reading, replicate wells” value (E. coli; [15]) was 0.6163 and the “checkerboard plate reading, Average values” (E. coli; [16]) was 0.6342. The “checkerboard plate reading, replicate wells” value (E. coli; [16]) was 0.6092 and 0.6266 and 0.6669, the “checkerboard plate reading, Average values” (E. coli; Ciprofloxacin 12.5 nM + LEI-800 0.8 µM) was 0.6048 and the “checkerboard plate reading, Average values” (E. coli; Ciprofloxacin 12.5 nM + LEI-800 3.1 µM) was 0.2553. For the same compound, the “checkerboard plate reading, Average values” (E. coli; Ciprofloxacin 12.5 nM + LEI-800 6.2 µM) was 0.142, the “checkerboard plate reading, Average values” (E. coli; Ciprofloxacin 12.5 nM + LEI-800 […]) was 0.4663 and the “checkerboard plate reading, Average values” (E. coli; [17]) was 0.8434. The “checkerboard plate reading, replicate wells” value (E. coli; [17]) was 0.9002 and 0.8407 and 0.7891, the “checkerboard plate reading, Average values” (E. coli; [18]) was 0.7231 and the “checkerboard plate reading, replicate wells” value (E. coli; [18]) was 0.7425 and 0.7229 and 0.7038. The “checkerboard plate reading, Average values” (E. coli; [19]) was 0.6746, the “checkerboard plate reading, replicate wells” value (E. coli; [19]) was 0.7088 and 0.6616 and 0.6533 and the “checkerboard plate reading, Average values” (E. coli; [20]) was 0.6549. The “checkerboard plate reading, replicate wells” value (E. coli; [20]) was 0.6481 and 0.6316 and 0.685, the “checkerboard plate reading, Average values” (E. coli; [21]) was 0.6861 and the “checkerboard plate reading, replicate wells” value (E. coli; [21]) was 0.7976 and 0.6273 and 0.6333. The “checkerboard plate reading, Average values” (E. coli; [22]) was 0.2871, the “checkerboard plate reading, replicate wells” value (E. coli; [22]) was 0.2705 and 0.2575 and 0.3334 and the “checkerboard plate reading, Average values” (E. coli; [23]) was 0.1517. The “checkerboard plate reading, replicate wells” value (E. coli; [23]) was 0.149 and 0.1483 and 0.1579, the “checkerboard plate reading, Average values” (E. coli; Ciprofloxacin 25 nM + LEI-800 […]) was 0.5325 and the “checkerboard plate reading, Average values” (E. coli; [24]) was 0.8946. For the same compound, the “checkerboard plate reading, replicate wells” value (E. coli; [24]) was 0.9376 and 0.8747 and 0.8715, the “checkerboard plate reading, Average values” (E. coli; [25]) was 0.7443 and the “checkerboard plate reading, replicate wells” value (E. coli; [25]) was 0.7759 and 0.7241 and 0.7328. For the same compound, the “checkerboard plate reading, Average values” (E. coli; [26]) was 0.6725, the “checkerboard plate reading, replicate wells” value (E. coli; [26]) was 0.6624 and 0.6684 and 0.6868 and the “checkerboard plate reading, Average values” (E. coli; [27]) was 0.6531. The “checkerboard plate reading, replicate wells” value (E. coli; [27]) was 0.6441 and 0.64 and 0.6751, the “checkerboard plate reading, Average values” (E. coli; [28]) was 0.7311 and the “checkerboard plate reading, replicate wells” value (E. coli; [28]) was 0.701 and 0.7232 and 0.7691. For the same compound, the “checkerboard plate reading, Average values” (E. coli; [29]) was 0.2841, the “checkerboard plate reading, replicate wells” value (E. coli; [29]) was 0.2522 and 0.2675 and 0.3325 and the “checkerboard plate reading, Average values” (E. coli; [30]) was 0.151. For the same compound, the “checkerboard plate reading, replicate wells” value (E. coli; [30]) was 0.1483 and 0.1495 and 0.1553 and the “checkerboard plate reading, Average values” (E. coli; Ciprofloxacin 50 nM + LEI-800 […]) was 0.6545.

For `O=S(=O)(NC[C@H]1CC[C@@H](c2ccc(-c3ccc(F)nc3)cc2)N1)c1cccc2cnccc12` [LEI-801], the IC50 (E. coli DNA gyrase) was 440 nM and the “fold less potent than LEI-800” value (E. coli DNA gyrase; supercoiling IC50 ratio) was 13 fold.
